Results from ChEMBL document CHEMBL3593241, “Leveraging the Pre-DFG Residue Thr-406 To Obtain High Kinase Selectivity in an Aminopyrazole-Type PAK1 Inhibitor Series” (ACS Med Chem Lett, 2015).
Each block holds one molecule with its values, some of them ahead of it.

Legend:
Aurora kinase A = biological target: T1, Aurora kinase A (Homo sapiens, UniProt O14965); assay: Inhibition of Aurora A (unknown origin)
T1 sequence (O14965 whole entry): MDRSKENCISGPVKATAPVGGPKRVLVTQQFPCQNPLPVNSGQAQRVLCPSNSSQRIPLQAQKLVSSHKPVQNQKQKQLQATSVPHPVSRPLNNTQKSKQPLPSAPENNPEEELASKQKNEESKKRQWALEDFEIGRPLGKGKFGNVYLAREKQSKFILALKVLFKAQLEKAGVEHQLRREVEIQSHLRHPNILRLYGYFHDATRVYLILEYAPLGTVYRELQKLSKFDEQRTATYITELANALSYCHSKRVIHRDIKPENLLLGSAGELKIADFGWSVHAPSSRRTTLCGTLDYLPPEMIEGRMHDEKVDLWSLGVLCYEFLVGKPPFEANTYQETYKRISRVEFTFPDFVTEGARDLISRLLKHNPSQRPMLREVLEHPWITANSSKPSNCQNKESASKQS

[1] = biological target: T2, Serine/threonine-protein kinase PAK 1 (Homo sapiens, UniProt Q13153); assay: Inhibition of PAK1 (unknown origin)
[2] = biological target: T3, Serine/threonine-protein kinase PAK 4 (Homo sapiens, UniProt O96013); assay: Inhibition of PAK4 (unknown origin)
Target sequence in this assay (O96013 whole entry): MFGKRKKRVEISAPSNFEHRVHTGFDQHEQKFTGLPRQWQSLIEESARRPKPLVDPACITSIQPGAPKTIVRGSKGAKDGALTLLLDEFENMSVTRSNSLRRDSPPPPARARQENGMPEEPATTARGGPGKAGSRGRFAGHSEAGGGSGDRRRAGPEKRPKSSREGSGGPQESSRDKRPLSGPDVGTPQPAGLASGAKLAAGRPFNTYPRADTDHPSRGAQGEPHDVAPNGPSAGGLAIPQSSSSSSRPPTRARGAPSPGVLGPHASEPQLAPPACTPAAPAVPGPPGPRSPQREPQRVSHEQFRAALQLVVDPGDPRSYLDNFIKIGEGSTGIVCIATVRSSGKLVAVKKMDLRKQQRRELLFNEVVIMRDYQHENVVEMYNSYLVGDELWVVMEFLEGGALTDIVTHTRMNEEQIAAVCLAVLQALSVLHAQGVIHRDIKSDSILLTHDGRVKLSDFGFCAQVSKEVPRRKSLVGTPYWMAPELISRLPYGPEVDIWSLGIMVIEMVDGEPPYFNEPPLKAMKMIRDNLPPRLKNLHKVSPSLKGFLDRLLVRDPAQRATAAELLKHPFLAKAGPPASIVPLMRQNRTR

[3] = Oral bioavailability in mouse at 25 mg/kg; format: ADME, organism-based; conditions: in vivo
[4] = biological target: T2, Serine/threonine-protein kinase PAK 1; assay: Inhibition of PAK1 in human EBC1 cells assessed as inhibition of MEK phosphorylation at S298; format: cell-based
[5] = (§1) AUC in mouse at 25 mg/kg, po; format: ADME, organism-based; conditions: in vivo
[6] = Lipophilicity, log D of the compound at pH 7.4; format: physicochemical; conditions: buffer
[7] = Clearance in mouse at 0.3 mg/kg, iv; format: ADME, organism-based; conditions: in vivo
[8] = Apparent permeability across apical to basolateral side of MDCK cells; format: ADME, cell-based, Canis lupus familiaris; conditions: dog
[9] = test system: Platelet-derived growth factor receptor alpha (Homo sapiens), P16234 [V561D]; conditions: 1 uM
Description: Inhibition of recombinant human PDGFRalpha V561D mutant at 1 uM relative to control

[10] = biological target: Glycogen synthase kinase-3 alpha (Homo sapiens) (UniProt P49840); conditions: 1 uM
Description: Inhibition of GSK-3alpha (unknown origin) at 1 uM relative to control

[11] = biological target: BDNF/NT-3 growth factors receptor (Homo sapiens) (UniProt Q16620); conditions: 1 uM
Description: Inhibition of recombinant human TrkB at 1 uM relative to control

[12] = biological target: Aurora kinase A (Homo sapiens) (UniProt O14965); conditions: 1 uM
Description: Inhibition of recombinant human Aurora A at 1 uM relative to control

[13] = biological target: Receptor-type tyrosine-protein kinase FLT3 (Homo sapiens) (UniProt P36888); conditions: 1 uM
Description: Inhibition of recombinant human FLT3 at 1 uM relative to control

[14] = biological target: T3, Serine/threonine-protein kinase PAK 4; conditions: 1 uM
Target sequence in this assay (O96013 whole entry, looked up): as the sequence (O96013 whole entry) above
Description: Inhibition of recombinant human PAK4 at 1 uM relative to control

[15] = biological target: Mitogen-activated protein kinase kinase kinase 9 (Homo sapiens) (UniProt P80192); conditions: 1 uM
Description: Inhibition of recombinant human MLK1 at 1 uM relative to control

[16] = biological target: Protein kinase C theta type (Homo sapiens) (UniProt Q04759); assay: Inhibition of recombinant human PKCtheta at 1 uM relative to control
[17] = biological target: Myotonin-protein kinase (Homo sapiens) (UniProt Q09013); conditions: 1 uM
Description: Inhibition of recombinant human DMPK at 1 uM relative to control

[18] = biological target: Serine/threonine-protein kinase 4 (Homo sapiens) (UniProt Q13043); conditions: 1 uM
Description: Inhibition of recombinant human MST1 at 1 uM relative to control

[19] = biological target: Tyrosine-protein kinase JAK2 (Homo sapiens) (UniProt O60674); conditions: 1 uM
Description: Inhibition of recombinant human JAK2 at 1 uM relative to control

[20] = biological target: Serine/threonine-protein kinase 3 (Homo sapiens) (UniProt Q13188); conditions: 1 uM
Description: Inhibition of recombinant human MST2 at 1 uM relative to control

[21] = biological target: Mitogen-activated protein kinase kinase kinase kinase 5 (Homo sapiens) (UniProt Q9Y4K4); conditions: 1 uM
Description: Inhibition of recombinant human KHS1 at 1 uM relative to control

[22] = biological target: Proto-oncogene tyrosine-protein kinase Src (Homo sapiens) (UniProt P12931); conditions: 1 uM
Description: Inhibition of recombinant human Src at 1 uM relative to control

[23] = biological target: Ribosomal protein S6 kinase alpha-2 (Homo sapiens) (UniProt Q15349); conditions: 1 uM
Description: Inhibition of recombinant human RSK3 at 1 uM relative to control

[24] = biological target: Cyclin-dependent kinase 1/cyclin B1 (Homo sapiens) (UniProt P06493+P14635); conditions: 1 uM
Description: Inhibition of recombinant human CDK1/cyclin B at 1 uM relative to control

[25] = biological target: Protein kinase C delta type (Homo sapiens) (UniProt Q05655); conditions: 1 uM
Description: Inhibition of recombinant human PKCdelta at 1 uM relative to control

[26] = biological target: High affinity nerve growth factor receptor (Homo sapiens) (UniProt P04629); conditions: 1 uM
Description: Inhibition of recombinant human TrkA at 1 uM relative to control

[27] = biological target: Cyclin-dependent kinase 7/ cyclin H (Homo sapiens) (UniProt P51946+P50613); conditions: 1 uM
Description: Inhibition of recombinant human CDK7/cyclin H at 1 uM relative to control

[28] = biological target: Epidermal growth factor receptor (Homo sapiens) (UniProt P00533); conditions: 1 uM
Description: Inhibition of recombinant human EGFR at 1 uM relative to control

[29] = biological target: CDK2/Cyclin A2 (Homo sapiens) (UniProt P24941+P20248); assay: Inhibition of recombinant human CDK2/cyclin A at 1 uM relative to control; format: protein-complex assay
[30] = biological target: Cyclin-dependent kinase 5/CDK5 activator 1 (Homo sapiens) (UniProt Q00535+Q15078); conditions: 1 uM
Description: Inhibition of recombinant human CDK5/p25 at 1 uM relative to control

[31] = biological target: T2, Serine/threonine-protein kinase PAK 1; conditions: 1 uM
Description: Inhibition of recombinant human PAK1 at 1 uM relative to control

[32] = biological target: Vascular endothelial growth factor receptor 2 (Homo sapiens) (UniProt P35968); conditions: 1 uM
Description: Inhibition of recombinant human KDR at 1 uM relative to control

[33] = biological target: Protein kinase C alpha type (Homo sapiens) (UniProt P17252); conditions: 1 uM
Description: Inhibition of recombinant human PKCalpha at 1 uM relative to control

Mus musculus = assay: as §1; format: ADME, organism-based; conditions: in vivo, BLD = below limit of detection

T2 sequence (Q13153 whole entry): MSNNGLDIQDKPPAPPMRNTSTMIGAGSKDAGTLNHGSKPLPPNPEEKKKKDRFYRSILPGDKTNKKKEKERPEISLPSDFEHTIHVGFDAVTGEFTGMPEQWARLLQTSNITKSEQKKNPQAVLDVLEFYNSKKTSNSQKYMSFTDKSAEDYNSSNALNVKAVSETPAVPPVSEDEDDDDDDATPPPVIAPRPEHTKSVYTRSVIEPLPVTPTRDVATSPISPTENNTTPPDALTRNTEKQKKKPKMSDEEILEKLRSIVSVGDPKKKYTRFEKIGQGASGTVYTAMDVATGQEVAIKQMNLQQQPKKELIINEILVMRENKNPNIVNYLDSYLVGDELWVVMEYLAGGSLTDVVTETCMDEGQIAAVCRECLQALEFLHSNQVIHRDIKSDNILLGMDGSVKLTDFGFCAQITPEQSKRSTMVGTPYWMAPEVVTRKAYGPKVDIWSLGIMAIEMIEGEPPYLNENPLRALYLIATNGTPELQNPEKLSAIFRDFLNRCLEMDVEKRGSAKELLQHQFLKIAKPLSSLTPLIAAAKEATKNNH
Sequence of Protein kinase C theta type (Homo sapiens) (Q04759 whole entry, looked up): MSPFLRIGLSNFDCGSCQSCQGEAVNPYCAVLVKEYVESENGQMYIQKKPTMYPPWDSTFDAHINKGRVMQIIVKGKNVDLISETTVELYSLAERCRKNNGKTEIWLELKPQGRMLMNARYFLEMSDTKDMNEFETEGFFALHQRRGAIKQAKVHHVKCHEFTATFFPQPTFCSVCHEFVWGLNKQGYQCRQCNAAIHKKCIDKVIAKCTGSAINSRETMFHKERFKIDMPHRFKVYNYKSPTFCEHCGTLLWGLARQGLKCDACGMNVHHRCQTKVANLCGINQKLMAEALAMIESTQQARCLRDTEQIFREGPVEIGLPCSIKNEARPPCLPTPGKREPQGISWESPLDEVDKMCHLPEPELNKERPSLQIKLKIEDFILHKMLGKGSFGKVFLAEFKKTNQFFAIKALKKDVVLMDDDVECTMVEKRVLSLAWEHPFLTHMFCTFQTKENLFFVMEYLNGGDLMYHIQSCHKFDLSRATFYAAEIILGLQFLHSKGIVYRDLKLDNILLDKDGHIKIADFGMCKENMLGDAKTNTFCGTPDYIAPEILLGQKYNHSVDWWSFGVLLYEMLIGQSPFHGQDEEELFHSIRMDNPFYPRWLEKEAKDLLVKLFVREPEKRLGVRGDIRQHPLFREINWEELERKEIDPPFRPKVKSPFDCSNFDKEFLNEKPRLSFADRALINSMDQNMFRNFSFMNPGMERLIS
Sequence of Mitogen-activated protein kinase kinase kinase kinase 5 (Homo sapiens) (Q9Y4K4 whole entry, looked up): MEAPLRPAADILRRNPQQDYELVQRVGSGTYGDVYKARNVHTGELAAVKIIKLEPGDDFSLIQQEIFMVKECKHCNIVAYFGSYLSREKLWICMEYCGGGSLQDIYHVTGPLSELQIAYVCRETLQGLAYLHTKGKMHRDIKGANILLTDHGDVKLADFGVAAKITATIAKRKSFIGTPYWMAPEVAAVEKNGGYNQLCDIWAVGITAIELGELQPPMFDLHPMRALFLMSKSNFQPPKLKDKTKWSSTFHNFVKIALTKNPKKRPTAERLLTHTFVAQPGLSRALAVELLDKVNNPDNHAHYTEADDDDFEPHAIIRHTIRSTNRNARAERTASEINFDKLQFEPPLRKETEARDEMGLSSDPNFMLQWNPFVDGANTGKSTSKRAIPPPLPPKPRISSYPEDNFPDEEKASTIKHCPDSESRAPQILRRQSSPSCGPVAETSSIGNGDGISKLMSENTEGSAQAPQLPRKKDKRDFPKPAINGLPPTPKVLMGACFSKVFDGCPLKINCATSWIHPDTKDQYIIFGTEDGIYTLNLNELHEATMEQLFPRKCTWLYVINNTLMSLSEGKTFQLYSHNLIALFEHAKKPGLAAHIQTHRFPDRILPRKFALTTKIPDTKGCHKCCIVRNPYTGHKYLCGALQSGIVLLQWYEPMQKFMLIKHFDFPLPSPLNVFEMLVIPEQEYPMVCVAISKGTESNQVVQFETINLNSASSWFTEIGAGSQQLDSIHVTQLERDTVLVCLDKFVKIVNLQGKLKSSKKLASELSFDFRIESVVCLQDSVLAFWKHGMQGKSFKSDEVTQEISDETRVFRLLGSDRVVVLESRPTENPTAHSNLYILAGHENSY
Sequence of Serine/threonine-protein kinase 4 (Homo sapiens) (Q13043 whole entry): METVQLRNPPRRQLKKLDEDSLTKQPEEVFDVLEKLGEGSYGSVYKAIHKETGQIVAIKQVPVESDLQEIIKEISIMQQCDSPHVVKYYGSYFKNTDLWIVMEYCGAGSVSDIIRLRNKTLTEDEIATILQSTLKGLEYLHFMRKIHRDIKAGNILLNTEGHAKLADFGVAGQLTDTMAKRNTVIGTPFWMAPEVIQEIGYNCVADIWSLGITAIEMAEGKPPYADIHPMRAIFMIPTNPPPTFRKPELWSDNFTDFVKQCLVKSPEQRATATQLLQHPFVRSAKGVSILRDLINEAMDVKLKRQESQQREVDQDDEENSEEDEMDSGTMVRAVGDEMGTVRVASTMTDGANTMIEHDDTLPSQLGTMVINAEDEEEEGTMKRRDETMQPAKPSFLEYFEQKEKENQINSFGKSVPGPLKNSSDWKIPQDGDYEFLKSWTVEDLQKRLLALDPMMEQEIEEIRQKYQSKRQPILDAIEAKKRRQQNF
Sequence of Receptor-type tyrosine-protein kinase FLT3 (Homo sapiens) (P36888 whole entry): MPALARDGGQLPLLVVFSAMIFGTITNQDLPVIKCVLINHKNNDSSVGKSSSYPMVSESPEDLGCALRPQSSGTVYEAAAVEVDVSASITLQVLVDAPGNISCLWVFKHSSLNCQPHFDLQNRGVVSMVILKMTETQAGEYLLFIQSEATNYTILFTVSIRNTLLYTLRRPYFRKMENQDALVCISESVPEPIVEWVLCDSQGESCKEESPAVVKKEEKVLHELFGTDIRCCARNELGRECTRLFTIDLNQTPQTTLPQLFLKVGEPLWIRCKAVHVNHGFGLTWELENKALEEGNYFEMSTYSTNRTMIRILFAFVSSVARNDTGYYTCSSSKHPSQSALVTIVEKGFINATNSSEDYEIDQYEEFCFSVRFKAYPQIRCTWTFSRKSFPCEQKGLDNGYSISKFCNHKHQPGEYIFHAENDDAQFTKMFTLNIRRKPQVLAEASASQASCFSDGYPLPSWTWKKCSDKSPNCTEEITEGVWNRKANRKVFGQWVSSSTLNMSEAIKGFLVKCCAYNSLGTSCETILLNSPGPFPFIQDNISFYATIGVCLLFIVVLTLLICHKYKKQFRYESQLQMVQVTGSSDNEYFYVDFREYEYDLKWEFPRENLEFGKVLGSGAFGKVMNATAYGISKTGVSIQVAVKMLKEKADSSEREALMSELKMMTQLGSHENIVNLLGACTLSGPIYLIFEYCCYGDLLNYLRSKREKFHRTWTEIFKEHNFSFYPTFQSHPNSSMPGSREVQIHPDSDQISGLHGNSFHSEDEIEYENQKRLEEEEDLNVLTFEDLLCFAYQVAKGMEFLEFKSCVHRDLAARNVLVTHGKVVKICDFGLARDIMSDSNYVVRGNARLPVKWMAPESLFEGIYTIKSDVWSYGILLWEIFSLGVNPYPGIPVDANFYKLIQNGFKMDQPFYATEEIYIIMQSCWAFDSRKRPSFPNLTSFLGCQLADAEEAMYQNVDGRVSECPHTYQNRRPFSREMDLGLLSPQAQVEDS
Sequence of BDNF/NT-3 growth factors receptor (Homo sapiens) (Q16620 32-822 limits assumed): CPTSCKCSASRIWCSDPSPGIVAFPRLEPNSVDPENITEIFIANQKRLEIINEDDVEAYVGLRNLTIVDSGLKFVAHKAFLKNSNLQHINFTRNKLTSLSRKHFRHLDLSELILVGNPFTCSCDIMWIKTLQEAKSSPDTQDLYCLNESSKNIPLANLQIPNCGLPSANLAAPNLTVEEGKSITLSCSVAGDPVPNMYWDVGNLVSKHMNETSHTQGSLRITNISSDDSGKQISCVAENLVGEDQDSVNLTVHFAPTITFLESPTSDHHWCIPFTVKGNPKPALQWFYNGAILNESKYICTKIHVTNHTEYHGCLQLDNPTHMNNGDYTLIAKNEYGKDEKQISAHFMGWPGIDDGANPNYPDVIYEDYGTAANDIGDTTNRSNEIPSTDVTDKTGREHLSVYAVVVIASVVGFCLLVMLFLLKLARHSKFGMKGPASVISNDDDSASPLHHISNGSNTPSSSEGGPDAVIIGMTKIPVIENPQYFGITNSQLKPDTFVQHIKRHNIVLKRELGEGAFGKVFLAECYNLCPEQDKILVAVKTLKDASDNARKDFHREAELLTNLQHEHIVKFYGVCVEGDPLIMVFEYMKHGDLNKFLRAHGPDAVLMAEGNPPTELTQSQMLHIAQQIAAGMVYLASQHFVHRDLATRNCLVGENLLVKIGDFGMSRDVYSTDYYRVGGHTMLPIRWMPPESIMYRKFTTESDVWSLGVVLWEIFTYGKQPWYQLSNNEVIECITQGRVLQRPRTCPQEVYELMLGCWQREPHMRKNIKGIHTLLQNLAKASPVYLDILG

Ki (Aurora kinase A): 17 nM
Ki [1]: 16 nM
Ki [2]: 629 nM
Compound: CN(Cc1ccc2[nH]cnc2c1Cl)c1nccc(Nc2cc(C3CCC(=O)C3)[nH]n2)n1 (racemic)

Ki (Aurora kinase A): > 5400 nM
Ki [1]: 552 nM
Ki [2]: > 2900 nM
Compound: CN1CC[C@@H](c2cc(Nc3ccnc(N(C)Cc4ccc5[nH]cnc5c4Cl)n3)n[nH]2)C1=O

Ki (Aurora kinase A): > 5400 nM
Ki [1]: 362 nM
Ki [2]: 2490 nM
Compound: CN1CCCC(c2cc(Nc3ccnc(N(C)C[C@H]4CC[C@H](N)CC4)n3)n[nH]2)C1=O (mixture of isomers)

Ki (Aurora kinase A): > 5400 nM
bioavailability [3]: < 1%
IC50 [4]: 7800 nM
AUC [5]: 5.2 µM·h
Ki [1]: 18 nM
logD [6]: 1.8
clearance [7]: 7 mL/min/kg
Ki [2]: 950 nM
Papp A→B [8]: 5 ×10⁻⁶ cm/s
Compound: CN1CC[C@H](c2cc(Nc3ccnc(N(C)Cc4ccc5[nH]cnc5c4Cl)n3)n[nH]2)C1=O

inhibition [9]: < 75%
Ki (Aurora kinase A): > 5400 nM
inhibition [10]: < 75%
inhibition [11]: < 75%
inhibition [12]: < 75%
inhibition [13]: < 75%
inhibition [14]: < 75%
inhibition [15]: < 75%
inhibition [16]: > 75%
inhibition [17]: < 75%
inhibition [18]: < 75%
inhibition [19]: < 75%
inhibition [20]: < 75%
inhibition [21]: < 75%
inhibition [22]: < 75%
inhibition [23]: < 75%
inhibition [24]: < 75%
inhibition [25]: < 75%
inhibition [26]: < 75%
inhibition [27]: < 75%
inhibition [28]: < 75%
Ki [1]: 46 nM
inhibition [29]: < 75%
inhibition [30]: < 75%
inhibition [31]: > 75%
inhibition [32]: < 75%
inhibition [33]: < 75%
Ki [2]: 1020 nM
Compound: C[C@H]1CN(C)C(=O)[C@@H]1c1cc(Nc2ccnc(N(C)C[C@H]3CC[C@H](N)CC3)n2)n[nH]1

Ki (Aurora kinase A): > 5400 nM
bioavailability [3]: < 1%
IC50 [4]: > 10000 nM
AUC (Mus musculus): BLD
inhibition [16]: > 75%
Ki [1]: 49 nM
inhibition [29]: < 75%
logD [6]: 0.12
clearance [7]: 33 mL/min/kg
Ki [2]: 621 nM
Compound: CCN(C[C@H]1CC[C@H](N)CC1)c1nccc(Nc2cc([C@H]3CCN(C)C3=O)[nH]n2)n1

Ki (Aurora kinase A): 3 nM
Ki [1]: 5 nM
Ki [2]: 272 nM
Compound: CN(Cc1ccc2[nH]cnc2c1Cl)c1nccc(Nc2cc(C3CC3)[nH]n2)n1

Ki (Aurora kinase A): > 5400 nM
Ki [1]: > 4500 nM
Ki [2]: > 2900 nM
Compound: CN1CC(C)(C)C(c2cc(Nc3ccnc(N(C)C[C@H]4CC[C@H](N)CC4)n3)n[nH]2)C1=O (stereo partly drawn)

Ki (Aurora kinase A): 25 nM
Ki [1]: 25 nM
Ki [2]: 1300 nM
Compound: Clc1c(CNc2nccc(Nc3cc(C4CCCO4)[nH]n3)n2)ccc2[nH]cnc12 (racemic)

Ki (Aurora kinase A): 893 nM
Ki [1]: 373 nM
Ki [2]: > 2900 nM
Compound: CC(=O)N(C)Cc1cc(Nc2ccnc(N(C)Cc3ccc4[nH]cnc4c3Cl)n2)n[nH]1

Ki (Aurora kinase A): 131 nM
Ki [1]: 29 nM
Ki [2]: 617 nM
Compound: COCC(C)c1cc(Nc2ccnc(N(C)Cc3ccc4[nH]cnc4c3Cl)n2)n[nH]1 (stereo not drawn)

Ki (Aurora kinase A): 3500 nM
bioavailability [3]: < 1%
IC50 [4]: > 10000 nM
Ki [1]: 37 nM
logD [6]: 0.96
Ki [2]: 344 nM
Compound: CN1CC[C@H](c2cc(Nc3ccnc(N(C)C[C@H]4CC[C@H](N)CC4)n3)n[nH]2)C1=O

Ki (Aurora kinase A): > 5400 nM
Ki [1]: 18 nM
Ki [2]: 817 nM
Compound: CCN1CC[C@H](c2cc(Nc3ccnc(N(C)C[C@H]4CC[C@H](N)CC4)n3)n[nH]2)C1=O

Ki (Aurora kinase A): > 5400 nM
Ki [1]: 111 nM
Ki [2]: 1270 nM
Compound: CN1CC[C@H](c2cc(Nc3ccnc(NC[C@H]4CC[C@H](N)CC4)n3)n[nH]2)C1=O
